Results reported in US12533403B2, “Peptide conjugated particles” (NORTHWESTERN UNIVERSITY, priority 2013, dated 2026).
“Also recorded” adds a separate entry of the source. No end group written: not given here.

Tests used:
[1] = test system: spontaneous Type 1 diabetes; assay: Spontaneous type 1 diabetes in NOD mice; assay type: in vivo; settings: iv at 6, 8, and 10 weeks of age; diabetes = blood glucose >250 mg/dL
Protocol: NOD mice were treated with either BSA (N=22) or insulin (N=23) coupled PLG particles via intravenous administration at 6, 8, and 10 weeks of age. The mice were then assayed for the development of diabetes which was defined as blood glucose >250 mg/dL.

[2] = test system: Relapsing Experimental Autoimmune Encephalitis (R-EAE); assay: Prophylactic tolerance induction in PLP139-151/CFA-induced R-EAE; assay type: in vivo, SJL/J mice; settings: for clinical score (disease induction): 500 nm particles given on day −7 relative to immunization, N=5
[3] = test system: cervical spinal cord of R-EAE mice; assay: Spinal cord histology and in vivo imaging in EAE
Protocol: An additional therapeutic tolerance strategy was performed by delivering PLP139-151-PLG or OVA323-339 PLG to mice. […] Mice were treated with PLP-PLG or OVA323-339-PLG and the tissue was retrieved at day 40. The cervical spinal cord was isolated and sectioned to investigate the immune response within the CNS, which underlies the pathology of R-EAE and multiple sclerosis.
Animals were treated with Complete Freund's Adjuvant (CFA), OVA323-339 PLG particles, or PLP139-151-PLG particles. The clinical scores and percent incidence of EAE were determined (FIG. 10B) and the spinal cords observed via in vivo imaging (FIGS. 10A and 11). […] The bar graphs give the numerical numbers to the signal strength shown in the brain and SC scans.

Th1 and Th17 responses = assay: Induction of antigen-specific Th1 and Th17 responses (draining lymph node cells); assay type: in vivo, BALB/c mice; settings: particles iv Day −7; measured at Day 10
Protocol: To determine whether administration of antigen-coupled particles inhibit induction of T-helper cells, either MOG35-55-PLG or OVA323-339-PLG particles were administered intravenously to BALB/c mice at Day −7. On Day 0, OVA323-339-PLG particles and Complete Freund's Adjuvant (CFA) were administered subcutaneously to the mice. The animals were re-stimulated with either MOG35-55-PLG or OVA323-339-PLG particles on Day 10 and the draining lymph node cells were isolated. The CPM and levels of IL-17, GM-CSF, IFN-γ, IL-10, and IL-4 were measured at Day 10.

[4] = test system: PLP139-151/CFA-induced EAE; assay: Anaphylaxis on iv injection during EAE remission; assay type: in vivo, SJL/J mice; settings: iv on day 21 (remission) relative to disease induction
Protocol: EAE was induced in six to eight week old female SJL/J mice by subcutaneous injection of PLP139-151 in CFA, and development of clinical disease was monitored and recorded (FIG. 5B). On day 21 relative to disease induction, mice were given iv injections of soluble PLP139-151 (clear squares), soluble OVA323-339 (clear circles), or the same peptides coupled to PLG nanoparticles (solids). Temperature of animals was monitored and recorded every 10 minutes for 1 hour following injection (FIG. 5A).

[5] = test system: Relapsing Experimental Autoimmune Encephalitis (R-EAE); assay: Treatment of R-EAE at day 10 by different routes of administration; assay type: in vivo, mice
Protocol: Experiments were conducted during development of embodiments of the present invention to investigate the ability of the PLG-PLP139-151 particles to treat disease rather than prevent disease, and to determine whether the route of administration affected the development of disease. Mice were immunized at day 0 with PLP139-151 and an adjuvant. Mice normally have maximal clinical scores at day 12-14. In this model, the mice were treated at day 10 with the PLG-PLP139-151 particles or with control PLG-OVA323-339 particles either via intravenous (iv) administration, intraperitoneal (ip) administration, subcutaneous (sc) administration, or orally. […] This is in contrast to animals treated with PLP139-151 polystyrene particles, whereby >70% of animals where observed to die from anaphylaxis.

[6] = test system: adoptive EAE (PLP139-151-activated blasts); assay: Therapeutic tolerance in adoptive transfer (and active) EAE; assay type: in vivo, SJL/J mice
Protocol: Experiments were conducted during development of embodiments of the present invention to investigate a second model of active disease termed adoptive transfer. Rather than immunizing the animals with the peptide, the lymphocytes from the spleen of mice with active disease were transferred to a recipient, who would subsequently develop disease. Experiments were conducted during development of embodiments of the present invention to characterize the ability of the PLG nanoparticles to deactivate the adoptively transferred activated effector cells.
Therapeutic tolerance induced by PLP139-151-PLG particles was compared in active and adoptive EAE. Adoptive EAE was induced in six to eight-week old female SJL/J mice by adoptive transfer of 2.5×10^6 PLP139-151-activated blasts. Mice were injected iv with PLP139-151 (squares) or OVA323-339 (circles) peptide coupled to 500 nm PLG nanoparticles 2 days (FIG. 14A), 14 days (FIG. 14C), 18 days (FIG. 14E), or 21 days (FIG. 14F) following disease induction. Clinical disease scores were compared to those following treatment with antigen-coupled splenocytes (FIG. 14A). Brain and spinal cord were collected from PLP139-151- or OVA323-339-tolerized mice for histological analysis on day 42. Sections from mice from panel A were stained for PLP protein and CD45 (FIG. 14B).
Mice were injected iv with PLP139-151-SP, PLP139-151-PLG, or OVA323-339-SP, or OVA323-339-PLG peptide coupled to 500 nm nanoparticles 10 days (FIG. 15A) or 2 days (FIG. 15B) following disease induction and the mean clinical score was determined.
SJL/J mice were injected i.v. with 500 nm PLG nanoparticles coupled with PLP139-151 (squares) or OVA323-339 (circles) 2 days following EAE induction by adoptive transfer. At the peak of disease (day 14) brains and spinal cords were removed and the number of lymphocytes (FIG. 16B), APCs (FIG. 16C), microglia (FIG. 16D), peripheral dendritic cells (FIG. 16E), myeloid dendritic cells (FIG. 16F) and macrophages (FIG. 16G) were enumerated by flow cytometry. The gating strategy for these populations is depicted in (FIG. 16A). CNS cell preparations were stimulated with PMA and ionomycin for 5 h prior to intracellular staining for IL-17A and IFN-γ (FIG. 16H).
To test the effect of treatment with an anti-PD-1 antibody on PLP139-151 induced tolerance in mice with adoptive EAE, on Day 0, mice received 3×10^6 PLP139-151 activated T-cell blasts via intravenous administration. On Day 2, they received PLP139-151 or OVA323-339 encapsulated in PLG particles via intravenous administration with either PBS or an anti-PD-1 antibody. On days 4, 6, 8, 10, and 12 all animals received either 250 μg anti-PD-1 antibody or PBS. […]

[7] = test system: OVA/Alum pre-sensitized mice; assay: Anaphylaxis-induced temperature drop in OVA/Alum pre-sensitized animals; assay type: in vivo; settings: iv on day 28; within 1 hour of delivery
Protocol: Due to the presence of active disease, anaphylaxis to the antigens is a concern, which could result in immediate mortality, and has been described with polystyrene bound particles. Anaphylaxis is associated with a significant drop in body temperature. To test whether intravenous administration of OVA-PLG induces an anaphylaxis-induced temperature drop in pre-sensitized animals, mice were immunized at day 0 with 10 μg OVA/Alum via intraperitoneal injection. On day 14, the mice were again immunized with 10 μg OVA/Alum via intraperitoneal injection, and then tolerized with OVA-PLG administered intravenously on day 21. On day 28, the mice were then tolerized with either OVA-PLG particles or OVA via intravenous administration.

BSA coupled PLG particles: BSA coupled PLG particles (control) [reference compound]
percentage of mice that did not develop diabetes over 300 days [1]: 22.7%

insulin coupled PLG particles: insulin coupled PLG particles
percentage of mice that did not develop diabetes over 300 days [1]: 69.6%

OVA323-339-PLG: control peptide OVA323-339 coupled to PLG particles (KISQAVHAAHAEINEAG; also: coupled to PLG particles; UniProt P01012 323-339, looked up, fragment) [reference compound]
clinical score (disease induction) [2]: did not prevent disease induction
staining for CD45, CD4, and CD11b in spinal cord ([3]; tissue retrieved at day 40): positive staining
Th1 and Th17 responses (CPM, IL-17, GM-CSF, IFN-γ, IL-10, IL-4) (Th1 and Th17 responses): inhibited the Th1 and Th17 responses

PLP139-151-PLG: immunodominant proteolipid protein PLP139-151 epitope coupled to 500 nm PLG nanoparticles
clinical scores between days 20 and 30 ([2]; 500 nm particles given on day −7, days 20 to 30): under 1
clinical score (disease induction) ([2]; listed as PLG-PLP139-151): specifically prevented EAE development
clinical score (disease induction) ([2]; listed as PLP139-151-PLGA): 0
mean clinical score with anti-CD25 antibody compared with control IgG antibody ([2]; anti-CD25 on Day −9, particles plus antibody on Day −7): greater mean clinical score
delayed-type hypersensitivity (DTH) responses to immunizing PLP139-151 epitope ([2]; prophylactic treatment on day −7): lack of delayed-type hypersensitivity (DTH) responses
induction of R-EAE by type of particle (mean clinical score, mean cumulative score) ([2]; treated on day −7, N=5 per group): more effective in down-regulating induction of R-EAE
anaphylaxis-associated mortality [4]: does not result in any anaphylaxis-associated mortality
mean clinical scores ([5]; administered intravenously, at most time points): 0
efficiency of tolerance by route of administration ([5]; treated at day 10, iv, ip, sc or oral): most efficient when the PLG-PLP139-151 particles are administered either intravenously or intraperitoneally
tolerance induction (mean clinical score) in active and adoptive EAE ([6]; 500 nm particles iv after disease induction (10 days active, 2 days adoptive)): tolerance is induced; also recorded: reduced disease; also recorded: induces tolerance
infiltration of central nervous system immune cells ([6]; iv 2 days after adoptive transfer, brains and spinal cords at day 14, flow cytometry): drastically reduced
mean clinical score ([6]; treated at day 2, all but two time points through day 40): 0
mean clinical score at the other two time points ([6]; treated at day 2, through day 40): 0.25
blood brain barrier (BBB) disruption and macrophage activation in the spinal cord ([3]; in vivo imaging (Angiosense, prosense)): inhibits blood brain barrier (BBB) disruption and macrophage activation
immune cell infiltration, inflammation and demyelination of the spinal cord ([3]; tissue retrieved at day 40): inhibits cervical spinal cord inflammation and demyelination; also recorded: reduction in immune cell infiltration within the spinal cord
staining for CD45, CD4, and CD11b in spinal cord ([3]; tissue retrieved at day 40): minimal staining

PLP139-151 polystyrene particles: PLP139-151 bound to polystyrene particles (CHCLGKWLGHPDK; cysteine pairing not given here; also: bound to polystyrene particles; UniProt P60202 139-151, looked up, fragment) [reference compound]
animals observed to die from anaphylaxis ([5]; mouse, in vivo): > 70%

B1: soluble OVA: soluble ovalbumin given intravenously (protein, UniProt P01012 2-386, looked up)
Ovalbumin: GSIGAASMEFCFDVFKELKVHHANENIFYCPIAIMSALAMVYLGAKDSTRTQINKVVRFDKLPGFGDSIEAQCGTSVNVHSSLRDILNQITKPNDVYSFSLASRLYAEERYPILPEYLQCVKELYRGGLEPINFQTAADQARELINSWVESQTNGIIRNVLQPSSVDSQTAMVLVNAIVFKGLWEKAFKDEDTQAMPFRVTEQESKPVQMMYQIGLFRVASMASEKMKILELPFASGTMSMLVLLPDEVSGLEQLESIINFEKLTEWTSSNVMEERKIKVYLPRMKMEEKYNLTSVLMAMGITDVFSSSANLSGISSAESLKISQAVHAAHAEINEAGREVVGSAEAGVDAASVSEEFRADHPFLFCIKHIATNAVLFFGRCVSP
body temperature [7]: decrease in temperature
